From PMC12675575, “A BRET biosensor for measuring uncompetitive engagement of PRMT5 complexes in cells” (Nature Communications, 2025)
“And” between values parts separate entries of the source, which are not always exact repeats. Identical values can stand only once. Like-named read-outs stand apart in the source and are kept apart here.

Key:
[1] = system: PRMT5; conditions: 3H-SAM to peptide substrate; read-out: Biochemical (nM), IC50; cited from earlier work
[2] = molecular target: PRMT5:MEP50 complex; parameters: method as in ref 4 (a number printed in a supplementary file, which may have a reference list of its own: not looked up in the article's list); conditions: read-out: SPR (pM), Kd; cited from earlier work
[3] = system: SmBB' dimethylation in MCF7 cells; parameters: method as in ref 4 (a number printed in a supplementary file, which may have a reference list of its own: not looked up in the article's list); conditions: read-out: In-Cell Western (nM), EC50; cited from earlier work
[4] = molecular target: NanoLuc-PRMT5 co-expressed with WDR77 (Homo sapiens, UniProt O14744); test: Live-cell NanoBRET target engagement with BRET probe CBH-002 in HEK293 cells expressing NanoLuc-PRMT5 and unlabeled WDR77; type: cell-based; parameters: host or cells: HEK293; conditions: for EC50: HEK293, competitive displacement of CBH-002, 2 h, n=3
Protocol: HEK293 cells (ATCC) were cultured in DMEM (Thermo Fisher) + 10% (v/v) FBS (Seredigm), and HCT116 cells (Horizon Discovery, #PAR-034 and #R02-033) were cultured in McCoy’s 5A (Thermo Fisher) + 10% FBS, with incubation in a humidified, 37 °C/5% CO2 incubator. Cells were split 1–3 days prior to performing experiments and used at roughly 80% confluency. […] Cells were transfected according to the manufacturer’s protocol using FuGENE HD (Promega). NanoLuc fusion DNA was diluted into Transfection Carrier DNA (Promega) in Opti-MEM at a ratio of 1:9 (mass/mass), and FuGENE HD was added at a ratio of 1:3 (μg DNA:μL lipid). […] Formed complexes were combined with cells resuspended to a density of 2 × 10^5 cells/mL in Opti-MEM + 1% FBS at a ratio of 1:20 (vol:vol). […] Cells were seeded at a density of 2 × 10^5 cells/mL in Opti-MEM + 1% FBS in 100 μL (96-well). The BRET probe CBH-002 was prepared first as a 100× stock in 100% DMSO (Sigma) and then diluted to a 20× stock in NanoBRET Tracer Dilution buffer (Promega). Test compounds were prepared as 1000× stocks in 100% DMSO and diluted to 10× stocks in Opti-MEM to prepare working stocks. […] NanoBRET Complete 3x Substrate was prepared by combining Nano-Glo Substrate and Extracellular NanoLuc Inhibitor in Opti-MEM, according to the manufacturer’s protocol (Promega).
BRET ratio values were calculated by dividing the acceptor by the donor signal, and raw BRET was converted to milli-BRET (mBRET) units (mBu) by multiplying by 1000.
EC50 values were obtained by fitting the BRET probe and compound affinity curves to a sigmoidal four-parameter fit model in Graphpad Prism:1 Y=Ymin+Ymax−Ymin/1+10^LogEC50−Xh where h is the Hill Slope.
When normalized BRET was used, mBRET values were normalized using2 NormalizedBRET%=(Y−BRETmin)/BRETmax−BRETmin where y = mBRET in the presence of test compound and BRET probe, BRETmin = mBRET at the highest concentration (saturating) of test compound and BRET probe, and BRETmax = mBRET in the presence of vehicle (DMSO) and BRET probe.
Normalized concentration-response curves showing full competition were fit using a 2-parameter model:3 Y=100/1+10^LogEC50−Xh
In situations where only partial competition was observed, the normalized concentration-response curves were fit using Eq. 1 and where Ymin was constrained to >0.

[5] = molecular target: NLuc-PRMT5 co-expressed with WDR77 (Homo sapiens, UniProt O14744); test: Compound EC50 titrations against MTA, NanoBRET in HEK293 (NLuc-PRMT5 + WDR77), with global Gaddum/Schild or Morrison fits; conditions: for Schild slope: Global Gaddum/Schild EC50 shift fit, MTA titration; for Right-shift in binding/potency on addition of MTA: HEK293, 300 µM exogenous MTA; for EC50 fold change (EC50 at 300 μM MTA versus vehicle): negative = enhanced potency under high MTA; for Hill slope (Global/Schild fit): constant across [MTA], constrained to 1 for PF06939999 and GSK3326595
Protocol: MTA (Sigma) was prepared at 100× in 100% DMSO and diluted to 10× in Opti-MEM. Inhibitors were run as 11 pt, 3-fold dilution curves and MTA as a seven point, 3-fold dilution curve starting at 100 μM. Cells were incubated for 2 h at 37 °C and 5% CO2 prior to BRET measurements. Data was normalized using Eq. (2) where BRETMIN = saturating compound + maximum [MTA], and BRETMAX = BRET signal under vehicle conditions. Curves were fit using Eq. (3), and EC50 values were plotted against MTA concentration to determine the linear range of MTA detection.

[6] = system: PRMT5–MEP50; conditions: cited from earlier work; for IC50: read-out: Biochemical (nM), IC50
[7] = molecular target: PRMT5/MEP50; parameters: method as in ref 7,8 (a number printed in a supplementary file, which may have a reference list of its own: not looked up in the article's list); conditions: 20 μM SAM preincubation; read-out: SPR; cited from earlier work
[8] = system: SDMA in MTAP del cells; parameters: method as in ref 7,8 (a number printed in a supplementary file, which may have a reference list of its own: not looked up in the article's list); conditions: read-out: In-Cell Western (nM), SDMA IC50; cited from earlier work
[9] = system: SDMA in MTAP WT cells; parameters: method as in ref 7,8 (a number printed in a supplementary file, which may have a reference list of its own: not looked up in the article's list); conditions: read-out: In-Cell Western (nM), SDMA IC50; cited from earlier work
[10] = system: MTAP del cell lines; parameters: method as in ref 7,8 (a number printed in a supplementary file, which may have a reference list of its own: not looked up in the article's list); conditions: 10 day viability, read-out: Proliferation (nM), IC50; cited from earlier work
[11] = system: MTAP WT cell lines; parameters: method as in ref 7,8 (a number printed in a supplementary file, which may have a reference list of its own: not looked up in the article's list); conditions: 10 day viability, read-out: Proliferation (nM), IC50; cited from earlier work
[12] = molecular target: PRMT5; parameters: method as in ref 5,6 (a number printed in a supplementary file, which may have a reference list of its own: not looked up in the article's list); conditions: single-cycle kinetic analysis; read-out: SPR (pM), Kd; cited from earlier work
[13] = system: SDMA levels in A427; parameters: method as in ref 5,6 (a number printed in a supplementary file, which may have a reference list of its own: not looked up in the article's list); conditions: read-out: In-Cell Western (nM), IC50; cited from earlier work
[14] = system: SDMA in MTAP WT cells; parameters: method as in ref 9 (a number printed in a supplementary file, which may have a reference list of its own: not looked up in the article's list); conditions: read-out: In-Cell Western (nM), SDMA EC50; cited from earlier work

NanoLuc-PRMT5 co-expressed with WDR77, sequence (O14744 whole entry, the tested form may be a part): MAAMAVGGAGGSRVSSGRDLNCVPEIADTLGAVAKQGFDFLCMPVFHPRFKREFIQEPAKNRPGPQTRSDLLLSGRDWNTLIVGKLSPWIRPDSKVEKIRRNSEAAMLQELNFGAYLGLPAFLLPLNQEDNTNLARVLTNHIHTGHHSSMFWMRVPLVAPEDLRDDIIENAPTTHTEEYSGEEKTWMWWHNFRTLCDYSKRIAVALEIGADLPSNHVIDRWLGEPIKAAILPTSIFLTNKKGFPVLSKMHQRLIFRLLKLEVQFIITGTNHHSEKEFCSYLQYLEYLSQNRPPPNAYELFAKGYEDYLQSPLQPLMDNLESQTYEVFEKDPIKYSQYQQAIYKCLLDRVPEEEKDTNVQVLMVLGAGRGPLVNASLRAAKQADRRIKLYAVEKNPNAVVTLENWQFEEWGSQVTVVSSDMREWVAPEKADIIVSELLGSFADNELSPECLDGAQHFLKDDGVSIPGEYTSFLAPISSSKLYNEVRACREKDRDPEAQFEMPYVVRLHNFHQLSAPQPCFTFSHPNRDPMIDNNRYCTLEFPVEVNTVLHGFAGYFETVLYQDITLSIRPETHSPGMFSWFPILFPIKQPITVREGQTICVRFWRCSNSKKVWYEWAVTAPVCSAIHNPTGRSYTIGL
NanoLuc-PRMT5 co-expressed with WDR77, sequence (Q9BQA1 whole entry partner, the tested form may be a part): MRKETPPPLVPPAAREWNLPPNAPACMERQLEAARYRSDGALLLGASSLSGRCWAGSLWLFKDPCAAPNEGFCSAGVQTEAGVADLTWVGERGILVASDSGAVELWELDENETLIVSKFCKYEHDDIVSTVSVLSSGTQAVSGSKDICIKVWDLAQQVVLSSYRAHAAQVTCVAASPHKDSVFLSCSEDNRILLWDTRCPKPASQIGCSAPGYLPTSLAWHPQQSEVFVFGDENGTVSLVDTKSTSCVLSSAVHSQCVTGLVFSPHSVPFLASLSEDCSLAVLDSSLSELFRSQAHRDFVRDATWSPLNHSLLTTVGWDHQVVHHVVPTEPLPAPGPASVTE
NLuc-PRMT5 co-expressed with WDR77, sequence (O14744 whole entry): as the sequence (O14744 whole entry, the tested form may be a part) above
NLuc-PRMT5 co-expressed with WDR77, sequence (Q9BQA1 whole entry partner): as the sequence (Q9BQA1 whole entry partner, the tested form may be a part) above

## Nc1ncnc2c1ccn2[C@@H]1O[C@H]([C@H](O)c2ccccc2)[C@@H](O)[C@H]1O [LLY-283]
[1]
  IC50: 22 nM
[2]
  Kd: 6000 pM
[3]
  EC50: 25 nM
[4]; HEK293, log([compound]), uM 0.0458, vehicle = 100, read-out: Normalized BRET, Bio rep 1-3
  remaining activity at […]: 34%
[4]; HEK293, log([compound]), uM 0.52, vehicle = 100, read-out: Normalized BRET, Bio rep 1-3
  remaining activity at […]: 24.1%
[4]; HEK293, log([compound]), uM -0.43, vehicle = 100, read-out: Normalized BRET, Bio rep 1-3
  remaining activity at 0.3715 µM: 53.7%
[4]; HEK293, log([compound]), uM -0.91, vehicle = 100, read-out: Normalized BRET, Bio rep 1-3
  remaining activity at […]: 66.1%
[4]; HEK293, log([compound]), uM -1.39, vehicle = 100, read-out: Normalized BRET, Bio rep 1-3
  remaining activity at 0.04074 µM: 81.4%
[4]; HEK293, log([compound]), uM -1.86, vehicle = 100, read-out: Normalized BRET, Bio rep 1-3
  remaining activity at 0.0138 µM: 91.4%
[4]; HEK293, log([compound]), uM -2.34, vehicle = 100, read-out: Normalized BRET, Bio rep 1-3
  remaining activity at 0.004571 µM: 97.7%
[4]; HEK293, log([compound]), uM -2.82, vehicle = 100, read-out: Normalized BRET, Bio rep 1-3
  remaining activity at 0.001514 µM: 102%
[4]; HEK293, log([compound]), uM -3.29, vehicle = 100, read-out: Normalized BRET, Bio rep 1-3
  remaining activity at 0.0005129 µM: 107%
[4]; HEK293, log([compound]), uM -3.77, vehicle = 100, read-out: Normalized BRET, Bio rep 1-3
  remaining activity at 0.0001698 µM: 102%
[4]; NanoBRET EC50 (95% CI, nM)
  EC50: 467 nM
[5]; EC50, [MTA] 0 μM, HEK293, 30 nM CBH-002
  EC50: 348 nM
[5]; EC50, nM (MTA = 0), Global/Schild fit, HEK293
  EC50: 365 nM
[5]; HEK293
  Schild slope: 1.1 (0.93 - 1.31)
  EC50 fold change (EC50 at 300 μM MTA versus vehicle): 6 and 6.1
[5]; Global/Schild fit, HEK293
  A2 (concentration of MTA needed to shift the dose response curve by a factor of 2): 61 (46-79) M
[5]
  Right-shift in binding/potency on addition of MTA: 6 fold
  Hill slope (Global/Schild fit): 0.55 (0.51 - 0.59)
[5]; [MTA] 0 μM, HEK293
  Hill slope: 0.62
[5]; [MTA] 11.11 μM, HEK293
  Hill slope: 0.55
[5]; [MTA] 100 μM, HEK293
  Hill slope: 0.62
[5]; [MTA] 300 μM, HEK293
  Hill slope: 0.64

## Cn1ncc(-c2ccc3c(=O)[nH]nc(CN)c3c2)c1-c1c(F)c(Cl)cc(OC2CC2)c1C#N [MRTX1719]
[6]; MTA
  IC50: 3.6 nM
[6]; SAM
  IC50: 20.4 nM
[6]
  Enhancement of biochemical IC50 in the presence of MTA: 5 fold
[7]
  Kd: 0.0094 nM
[8]
  IC50: 8 nM
[9]
  IC50: 653 nM
[10]
  IC50: 12 nM
[11]
  IC50: 890 nM

## Nc1ncnc2c1ccn2C1OC(C(O)c2ccccc2)C(O)C1O (centres unmarked) [PF-06939999]
[12]
  Kd: 5.8 pM
[13]
  IC50: 1.1 nM
[4]; HEK293, log([compound]), uM -0.48, vehicle = 100, read-out: Normalized BRET, Bio rep 1-3
  remaining activity at […]: 0.95%
[4]; HEK293, log([compound]), uM -0.95, vehicle = 100, read-out: Normalized BRET, Bio rep 1-3
  remaining activity at 0.1122 µM: 2.4%
[4]; HEK293, log([compound]), uM -1.43, vehicle = 100, read-out: Normalized BRET, Bio rep 1-3
  remaining activity at 0.03715 µM: 5.9%
[4]; HEK293, log([compound]), uM -1.91, vehicle = 100, read-out: Normalized BRET, Bio rep 1-3
  remaining activity at […]: 11.6%
[4]; HEK293, log([compound]), uM -2.39, vehicle = 100, read-out: Normalized BRET, Bio rep 1-3
  remaining activity at 0.004074 µM: 22.9%
[4]; HEK293, log([compound]), uM -2.86, vehicle = 100, read-out: Normalized BRET, Bio rep 1-3
  remaining activity at 0.00138 µM: 51.1%
[4]; HEK293, log([compound]), uM -3.34, vehicle = 100, read-out: Normalized BRET, Bio rep 1-3
  remaining activity at 0.0004571 µM: 72.7%
[4]; HEK293, log([compound]), uM -3.82, vehicle = 100, read-out: Normalized BRET, Bio rep 1-3
  remaining activity at 0.0001514 µM: 89%
[4]; HEK293, log([compound]), uM -4.29, vehicle = 100, read-out: Normalized BRET, Bio rep 1-3
  remaining activity at 51.29 pM: 98.4%
[4]; HEK293, log([compound]), uM -4.77, vehicle = 100, read-out: Normalized BRET, Bio rep 1-3
  remaining activity at 16.98 pM: 102%
[4]; read-out: NanoBRET EC50 (95% CI)
  EC50: 1.7 nM
[5]; HEK293
  Schild slope: 1.15 (0.88 - 1.51)
  EC50 fold change (EC50 at 300 μM MTA versus vehicle): 3 and 2.8
[5]; Global/Schild fit, HEK293
  A2 (concentration of MTA needed to shift the dose response curve by a factor of 2): 172 (137 – 211) M
[5]
  Right-shift in binding/potency on addition of MTA: 3 fold
  Hill slope (Global/Schild fit): 1
[5]; [MTA] 0 μM, HEK293
  Hill slope: 0.97
[5]; [MTA] 11.11 μM, HEK293
  Hill slope: 0.99
[5]; [MTA] 100 μM, HEK293
  Hill slope: 0.79
[5]; [MTA] 300 μM, HEK293
  Hill slope: 0.76

## Cc1cc(NC(=O)C(=O)N2CC(C)CCC2c2ccc3scnc3c2)cnc1N (centres unmarked) [TNG908]
[14]
  EC50: 135 nM
